Laboratory results published in US8455544B2, “Synthetic triterpenoids and methods of use in the treatment of disease” (Reata Pharmaecuticals, Inc., priority 2008, dated 2013).
Read-outs that look alike come from different tables or passages of the source.

Columns and labels:
[1] = parameters: unit not given here; conditions: six-month, cited from earlier work
[2] = test system: IFNγ-induced NO production in RAW264.7 macrophages; assay: Suppression of IFNγ-induced NO production (Griess reagent system); format: cell-based; conditions: Mus musculus; RAW264.7, pre-treated 2 hours, then 20 ng/ml IFNγ for 24 hours
RAW264.7 macrophages = assay: Cell viability, WST-1 reagent; format: cell-based; conditions: Mus musculus, RAW264.7 (20 ng/ml IFNγ)
[3] = cynomolgus monkey, in vivo, po, 4.1 mg/kg
[4] = test system: NQO1 in Hepa1c1c7 murine hepatoma cells; conditions: concentration required to induce a two-fold increase in expression of NQO1, Hepa1c1c7 cells; cited from earlier work

| Molecule | IC50 [2] | IC50 (RAW264.7 macrophages) | NQO1 CD [4] | further results |
| --- | --- | --- | --- | --- |
| Pramlintide acetate |  |  |  | Change (Hemoglobin A1c) ([1]; +/− insulin, mean A1c 9.1, duration of DM 13 years): −0.4 |
| CC1(C)CC[C@]2(C(=O)NCC(F)(F)F)CC[C@]3(C)[C@H](C(=O)C=C4[C@@]5(C)C=C(C#N)C(=O)C(C)(C)[C@@H]5CC[C@]43C)[C@@H]2C1 [RTA 404] | 0.0058 µM | 0.1 µM |  |  |
| CCNC(=O)[C@]12CCC(C)(C)C[C@H]1[C@H]1C(=O)C=C3[C@@]4(C)C=C(C#N)C(=O)C(C)(C)[C@@H]4CC[C@@]3(C)[C@]1(C)CC2 [RTA 405] | 0.006 µM | ~0.2 µM |  |  |
| COC(=O)[C@]12CCC(C)(C)C[C@H]1[C@H]1C(=O)C=C3[C@@]4(C)C=C(C#N)C(=O)C(C)(C)[C@@H]4CC[C@@]3(C)[C@]1(C)CC2 [Form B] |  |  |  | Bioavailability compared with Form A [3]: higher |
| N[C@@H](CC(=O)N1CCn2c(nnc2C(F)(F)F)C1)Cc1cc(F)c(F)cc1F [Sitagliptin] |  |  |  | Change (Hemoglobin A1c) ([1]; +/− metformin with A1c ≧ 7.5, mean A1c 8.9, duration of DM 4.4 years): −0.7; Change (Hemoglobin A1c) ([1]; +/− placebo with A1c ≧ 7.0, mean A1c 8.0, duration of DM 4.3 years): −0.8; Change (Hemoglobin A1c) ([1]; pioglitazone +/− sitagliptin, A1c ≧ 7.0, mean A1c 8.1, duration of DM 6.1 years): −0.7 |
| CC1(C)CC[C@]2(C#N)CC[C@]3(C)[C@H](C(=O)C=C4[C@@]5(C)C=C(C#N)C(=O)C(C)(C)[C@@H]5CC[C@]43C)[C@@H]2C1 [TP-225] | ~0.0004 µM | 0.075 µM | 0.28 nM |  |
| CC1(C)CC[C@]2(C(=O)O)CC[C@]3(C)[C@H](C(=O)C=C4[C@@]5(C)C=C(C#N)C(=O)C(C)(C)[C@@H]5CC[C@]43C)[C@@H]2C1 [RTA 401, 2-cyano-3,12-dioxooleane-1,9(11)-dien-28-oic acid] | ~0.01 µM | > 0.2 µM | 2.3 nM |  |
| CC1(C)CC[C@]2(C(=O)n3ccnc3)CC[C@]3(C)[C@H](C(=O)C=C4[C@@]5(C)C=C(C#N)C(=O)C(C)(C)[C@@H]5CC[C@]43C)[C@@H]2C1 [RTA 403] | ~0.0006 µM | 0.1 µM | 3.3 nM |  |
